Values joined by “and” are separate entries in the source; they are usually repeats but may differ in a detail not shown here. Equal values may be shown once.
Test system: NIH3T3 cells
Assay: TZ-induced necroptosis, 7-AAD/annexin V flow cytometry
Format: cell-based, murine
Details: NIH3T3, TZ 16 h
Method: To induce necroptosis in a human cell line, HT29 cells were stimulated at the indicated time points with 20 ng/ml human TNFα (Biolegend), 1 μM SMAC-mimetics (Birinapant, Chemietek), and 20 μM zVAD-fmk (Selleckchem, herein referred to as zVAD). For the induction of necroptosis in NIH3T3 cells, cells were incubated with 20 ng/ml TNF-α and 20 μM zVAD for indicated time points. […] Cells were seeded in six-well plates or petri dishes. […] After indicated time points, cells were collected and prepared for flow cytometry, immunoblotting, and/or LDH release assays.
Cells were harvested and the pellets were washed twice in PBS and stained with 5 μl of 7-AAD (BD Biosciences) and 5 μl of annexin-V-FITC (BD Biosciences) added to 100 μl annexin-V binding buffer (BD Biosciences). After 15 min, cells were recorded on the LSRII with the FACS Diva 6.1.1 software (BD Biosciences) and subsequently analyzed with the FlowJo v10 software (Tree Star).

CCOC(=O)c1ccc(NC2CCCCC2)c(N)c1 [Fer-1, ferrostatin-1]
7-AAD/annexin V flow cytometry, source data of bar graph Fig2i: 7.78% and 9.49% and 6.87% and 10.1%

Reference: article PMC8292346, “Dysfunction of the key ferroptosis-surveilling systems hypersensitizes mice to tubular necrosis during acute kidney injury” (Nature Communications, 2021)
